Test results taken from PMC7238120, “Strong and Selective Inhibitory Effects of the Biflavonoid Selamariscina A against CYP2C8 and CYP2C9 Enzyme Activities in Human Liver Microsomes” (Pharmaceutics, 2020).
Like-named read-outs stand apart in the source and are kept apart here.

Key:
Format in all cases: in vitro ADME
other P450 isoforms = experiment: Nine-P450 cocktail inhibition in human liver microsomes, statements on the other P450 isoforms; conditions: inhibitor 5 μM; HLMs
Description: (§1) The inhibitory potential of the five biflavonoids on the metabolism of nine P450 probe substrates was evaluated using previously developed methods with minor modifications. Biflavonoids were dissolved in methanol. The final concentration of methanol in the incubation mixture was 1.0% (v/v). We used these P450 probe substrates: phenacetin for CYP1A2, coumarin for CYP2A6, bupropion for CYP2B6, amodiaquine for CYP2C8, diclofenac for CYP2C9, omeprazole for CYP2C19, dextromethorphan for CYP2D6, chlorzoxazone for CYP2E1 and midazolam for CYP3A (Table 1). The incubation mixtures containing pooled human liver microsomes (HLMs, XTreme 200, XenoTech), P450 probe substrates, and inhibitor (0~20 µM) were pre-incubated at 37 °C for 5 min. The concentration range of the inhibitor varied (0, 0.002, 0.005, 0.02, 0.05, and 0.2 µM for CYP2C8; 0, 0.02, 0.05, 0.2, 0.5, and 2 µM for CYP2C9; 0, 0.5, 2, 5, 10, and 20 µM for other P450 isoforms). After pre-incubation, a reduced nicotinamide adenine dinucleotide phosphate (NADPH) generation system containing 1 unit/ml G6PDH, 1.3 mM β- nicotinamide adenine dinucleotide phosphate (β- NADP^+), 3.3 mM MgCl2, and 3.3 mM G6P was added to initiate a reaction, and further incubated for 10 min at 37 °C. The reaction was stopped by adding 50 μL of ice-cold acetonitrile containing 7 nM trimipramine (internal standard, IS). After centrifugation at 18,000 g (5 min, 4 °C), aliquots of supernatants were analyzed by LC–MS/MS (Shimadzu LCMS 8060 system, Shimadzu, Kyoto, Japan). All microsomal incubations were conducted in triplicate.
(§2) All metabolites and the IS were separated on a Kinetex XB-C18 column (100 × 2.10 mm, 2.6 μm, 100 Å; Phenomenex, Torrance, CA, USA) and analyzed using a Shimadzu LCMS 8060 triple-quadrupole mass spectrometer coupled with a Nexera X2 ultra high-performance liquid chromatography system (Shimadzu, Kyoto, Japan) equipped with an electrospray ionization interface. The mobile phase consisted of 0.1% formic acid in water (A) and 0.1% formic acid in acetonitrile (B). […] Electrospray ionization was performed in positive-ion mode at 4000 V or in negative-ion mode at −3500 V. The optimum operating conditions were determined as follows: vaporizer temperature, 300 °C; capillary temperature, 350 °C; collision gas (argon) pressure, 1.5 mTorr. Quantitation was conducted in selected reaction monitoring (SRM) modes with the precursor-to-product ion transition for each metabolite (Table 1 and Table 2).
(§3) We analyzed the data with Shimadzu LabSolution LC–MS software. The IC50 values were calculated by WinNonlin software (Pharsight, Mountain View, CA, USA). […]

[1] = test system: other P450 isoforms (other than CYP2C8 and CYP2C9); experiment: as above; conditions: human, pooled human liver microsomes; inhibitor 0.5 μM; HLMs; isoforms other than CYP2C8 and CYP2C9; read-out: Inhibition of the other P450 isoform-specific activities
Description: as §1, §2, §3

CYP2C8 = molecular target: T1, CYP2C8 (Homo sapiens, UniProt P10632); experiment: Time-dependent inhibition (IC50 shift) of CYP2C8, amodiaquine, human liver microsomes; parameters: incubation mixtures containing pooled human liver microsomes (HLMs, XTreme 200, XenoTech); tissue XenoTech XTreme 200; host or cells: pooled human liver microsomes
T1 sequence (P10632 1-490): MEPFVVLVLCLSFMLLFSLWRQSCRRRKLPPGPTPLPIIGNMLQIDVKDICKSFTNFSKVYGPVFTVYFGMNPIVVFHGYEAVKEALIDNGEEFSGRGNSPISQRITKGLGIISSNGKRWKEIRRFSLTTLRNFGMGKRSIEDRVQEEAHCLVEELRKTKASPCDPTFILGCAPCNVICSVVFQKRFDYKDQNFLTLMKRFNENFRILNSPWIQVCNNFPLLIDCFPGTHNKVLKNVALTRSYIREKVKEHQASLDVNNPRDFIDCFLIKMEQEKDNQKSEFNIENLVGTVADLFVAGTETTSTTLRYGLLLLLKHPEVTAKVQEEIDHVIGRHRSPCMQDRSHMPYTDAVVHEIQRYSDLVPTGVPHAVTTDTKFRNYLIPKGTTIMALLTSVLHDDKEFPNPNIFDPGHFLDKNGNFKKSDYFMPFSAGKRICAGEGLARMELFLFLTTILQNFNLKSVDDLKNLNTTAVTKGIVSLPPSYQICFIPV
Description: (§4) The time-dependent inhibition of selamariscina A against CYP2C8 and CYP2C9 enzymes was evaluated using an IC50 shift method. Selamariscina A was pre-incubated at six concentrations (0, 0.002, 0.005, 0.02, 0.05, and 0.2 μM) with HLMs in the presence of an NDAPH generation system for 30 min at 37 °C. The reaction was initiated by adding 1 μM amodiaquine or 10 μM diclofenac and further incubated for 10 min. Incubation was terminated by adding 50 μL of ice-cold acetonitrile containing 7 nM trimipramine. After centrifugation, aliquots of supernatants were analyzed by LC–MS/MS.
(§5) All metabolites and the IS were separated on a Kinetex XB-C18 column (100 × 2.10 mm, 2.6 μm, 100 Å; Phenomenex, Torrance, CA, USA) and analyzed using a Shimadzu LCMS 8060 triple-quadrupole mass spectrometer coupled with a Nexera X2 ultra high-performance liquid chromatography system (Shimadzu, Kyoto, Japan) equipped with an electrospray ionization interface. The mobile phase consisted of 0.1% formic acid in water (A) and 0.1% formic acid in acetonitrile (B). The elution condition was set as 8% B (0–0.5 min), 8%→60% B (0.5–5 min), 60% B (5–6 min), 60%→8% B (6–6.1 min) and 8% B (6.1–9 min) for the analysis of metabolites of P450 probe substrates and set as 0%→40% B (0–1 min), 40%→50% B (1–5 min), 50%→0% B (5–5.1 min), and 0% B (5.1–8 min) for the analysis of metabolites of UGT probe substrates. The flow rate was 0.2 mL/min. Electrospray ionization was performed in positive-ion mode at 4000 V or in negative-ion mode at −3500 V. The optimum operating conditions were determined as follows: vaporizer temperature, 300 °C; capillary temperature, 350 °C; collision gas (argon) pressure, 1.5 mTorr. Quantitation was conducted in selected reaction monitoring (SRM) modes with the precursor-to-product ion transition for each metabolite (Table 1 and Table 2).
as §3

CYP2C9 = CYP2C9 (Homo sapiens, UniProt P11712); experiment: Time-dependent inhibition (IC50 shift) of CYP2C9, diclofenac, human liver microsomes; parameters: incubation mixtures containing pooled human liver microsomes (HLMs, XTreme 200, XenoTech); tissue XenoTech XTreme 200; host or cells: pooled human liver microsomes
Description: as §4, §5, §3

Sequence of CYP2C9 (P11712 whole entry): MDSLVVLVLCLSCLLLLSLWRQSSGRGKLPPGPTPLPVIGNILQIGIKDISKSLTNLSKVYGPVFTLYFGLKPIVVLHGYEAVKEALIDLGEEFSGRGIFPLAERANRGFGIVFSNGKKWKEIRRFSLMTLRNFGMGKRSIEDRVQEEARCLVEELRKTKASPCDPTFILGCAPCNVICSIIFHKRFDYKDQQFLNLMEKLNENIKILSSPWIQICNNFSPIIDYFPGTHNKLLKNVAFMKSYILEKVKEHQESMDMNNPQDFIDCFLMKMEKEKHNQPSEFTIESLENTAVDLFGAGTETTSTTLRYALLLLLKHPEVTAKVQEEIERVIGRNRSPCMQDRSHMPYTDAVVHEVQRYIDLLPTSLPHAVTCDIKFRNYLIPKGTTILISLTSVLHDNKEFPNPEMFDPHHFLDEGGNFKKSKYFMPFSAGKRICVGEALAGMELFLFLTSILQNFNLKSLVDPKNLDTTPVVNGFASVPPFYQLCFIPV

| inhibition at 10 min, 0.5 µM [1] [%] | IC50 (CYP2C8; 30 min pre-incubation at 37 °C with NADPH generation system, read-out: IC50, CYP2C8 amodiaquine, HLMs pre-incubated with NADPH generation system) [nM] | Time-dependent inhibition of CYP2C8 (CYP2C8; IC50 shift method) | IC50 (CYP2C8; no NADPH pre-incubation, read-out: IC50, CYP2C8 amodiaquine, untreated HLMs) [nM] | IC50 (CYP2C9; 30 min pre-incubation at 37 °C with NADPH generation system, read-out: IC50, CYP2C9 diclofenac, HLMs pre-incubated with NADPH generation system) [nM] | Time-dependent inhibition of CYP2C9 (CYP2C9; IC50 shift method) | IC50 at 10 min (CYP2C9; human, human liver microsomes, probe diclofenac (10 μM), no NADPH pre-incubation, read-out: IC50, CYP2C9 diclofenac, untreated HLMs) [nM] | Structure (SMILES) | Inhibition of the other six P450 isoforms (other P450 isoforms) |
| --- | --- | --- | --- | --- | --- | --- | --- | --- |
| – | – | – | – | – | – | – | CC(C)(O)c1ccccc1CC[C@@H](SCC1(CC(=O)O)CC1)c1cccc(/C=C/c2ccc3ccc(Cl)cc3n2)c1 [montelukast, reference compound] | negligible inhibition |
| ≤ 21.8 | 31 | not a time-dependent inhibitor | 19 | 92 | not a time-dependent inhibitor | 54 | O=C1CC(c2cc(-c3c(O)ccc4c(=O)cc(-c5ccc(O)cc5)oc34)c(O)cc2O)Oc2cc(O)cc(O)c21 (centres unmarked) [selamariscina A] | – |
